Laboratory results taken from patent US20040161861A1, “Glycoconjugate sensors” (priority 2002, published 2004).

Tests used:
Conditions in all cases: colorimetric ELISA, OD at 405 nm, FIG. 5
B. thuringiensis spores = assay type: binding, Bacillus thuringiensis
B. cereus spores = assay type: binding, Bacillus cereus
B. subtilis spores = assay type: binding, Bacillus subtilis
B. pumilus spores = assay type: binding

Substance: Fuc α1-3 GlcNAc β-PAA-flu
- binding match between spores and immobilized glycoconjugate (B. thuringiensis spores): bound

Substance: Fuc α 1-4 GlcNAc β-PAA-flu
- binding match between spores and immobilized glycoconjugate (B. thuringiensis spores): bound

Substance: Gal α 1-3 GalNAc α-PAA-flu
- binding match between spores and immobilized glycoconjugate (B. cereus spores): bound

Substance: Gal β1-3 Gal β-PAA-flu
- binding match between spores and immobilized glycoconjugate (B. subtilis spores): bound

Substance: Gal β1-3 GalNAc β-PAA-flu
- binding match between spores and immobilized glycoconjugate (B. pumilus spores): bound

Substance: Gal β1-3GalNAc α-PAA-flu
- binding match between spores and immobilized glycoconjugate (B. pumilus spores): bound

Substance: Gal β 1-4 Glc β-PAA-flu
- binding match between spores and immobilized glycoconjugate (B. cereus spores): bound

Substance: GlcNAc β 1-4 GlcNAc β-PAA-flu
- binding match between spores and immobilized glycoconjugate (B. subtilis spores): bound
